Measurements taken from patent US9695155B2, “Herbicidal substituted pyrimidinyloxy benzene compounds” (E. I. DU PONT DE NEMOURS AND COMPANY, priority 2013, dated 2017).

Columns and labels:
sedge, umbrella = test: Test B flooded paddy test; assay type: in vivo, Cyperus difformis; conditions: Flood, 250 g ai/ha; 0 to 100 scale where 0 is no effect and 100 is complete control
Procedure, shortened: (§1)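 Plants at 2-leaf stage; pots flooded to 3 cm above soil and compound applied directly into paddy water, depth held throughout. After 13 to 15 days in greenhouse, visual rating versus controls on 0 (no effect) to 100 (complete control) scale.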

morningglory [1] = test: Test A postemergence; assay type: in vivo, Ipomoea spp.
Procedure, shortened: (§2)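 Visual 0–100 rating (100 = complete control) taken about 10 d post-treatment relative to untreated checks. Preemergence: directed soil spray on sown loam/sand pots. Postemergence: seedlings 2–10 cm, 1–2 leaf. Non-phytotoxic solvent formulation with surfactant.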

wheat [2] = test: Test A postemergence; assay type: in vivo, Triticum aestivum
Procedure, shortened: as §2

barnyardgrass [3] = test: Test A postemergence; assay type: in vivo, Echinochloa crus-galli
Procedure, shortened: as §2

barnyardgrass [4] = test: Test B flooded paddy test; assay type: in vivo, Echinochloa crus-galli; conditions: Flood, 250 g ai/ha; 0 to 100 scale where 0 is no effect and 100 is complete control
Procedure, shortened: as §1

morningglory [5] = test: Test A preemergence; assay type: in vivo, Ipomoea spp.; conditions: for Morningglory plant response rating: 500 g ai/ha
Procedure, shortened: as §2

giant foxtail [6] = test: Test A postemergence; assay type: in vivo, Setaria faberii
Procedure, shortened: as §2

wheat [7] = test: Test A preemergence; assay type: in vivo, Triticum aestivum; conditions: for Wheat plant response rating: 500 g ai/ha
Procedure, shortened: as §2

Heteranthera limosa = test: Test B flooded paddy test; assay type: in vivo; conditions: Flood, 250 g ai/ha; 0 to 100 scale where 0 is no effect and 100 is complete control
Procedure, shortened: as §1

corn [8] = test: Test A postemergence; assay type: in vivo, Zea mays
Procedure, shortened: as §2

giant foxtail [9] = test: Test A preemergence; assay type: in vivo, Setaria faberii; conditions: for Foxtail, Giant plant response rating: 500 g ai/ha
Procedure, shortened: as §2

large (Lg) crabgrass [10] = test: Test A postemergence; assay type: in vivo, Digitaria sanguinalis
Procedure, shortened: as §2

velvetleaf [11] = test: Test A preemergence; assay type: in vivo, Abutilon theophrasti; conditions: for Velvetleaf plant response rating: 500 g ai/ha
Procedure, shortened: as §2

velvetleaf [12] = test: Test A postemergence; assay type: in vivo, Abutilon theophrasti
Procedure, shortened: as §2

barnyardgrass [13] = test: Test A preemergence; assay type: in vivo, Echinochloa crus-galli; conditions: for Barnyardgrass plant response rating: 500 g ai/ha
Procedure, shortened: as §2

corn [14] = test: Test A preemergence; assay type: in vivo, Zea mays; conditions: for Corn plant response rating: 500 g ai/ha
Procedure, shortened: as §2

rice = test: Test B flooded paddy test; assay type: in vivo, Oryza sativa; conditions: Flood, 250 g ai/ha; 0 to 100 scale where 0 is no effect and 100 is complete control
Procedure, shortened: as §1

large (Lg) crabgrass [15] = test: Test A preemergence; assay type: in vivo, Digitaria sanguinalis; conditions: for Crabgrass, Large plant response rating: 500 g ai/ha
Procedure, shortened: as §2

pigweed [16] = test: Test A preemergence; assay type: in vivo, Amaranthus retroflexus; conditions: for Pigweed plant response rating: 500 g ai/ha
Procedure, shortened: as §2

pigweed [17] = test: Test A postemergence; assay type: in vivo, Amaranthus retroflexus
Procedure, shortened: as §2

[18] = 125 g ai/ha, 0 to 100 scale where 0 is no effect and 100 is complete control
[19] = 500 g ai/ha, 0 to 100 scale, 0 no effect, 100 complete control
[20] = 0 to 100 scale, 0 no effect, 100 complete control, approx. 10 days
[21] = 125 g ai/ha, 0 to 100 scale, 0 no effect, 100 complete control
[22] = 500 g ai/ha, 0 to 100 scale where 0 is no effect and 100 is complete control
[23] = 0 to 100 scale where 0 is no effect and 100 is complete control

COc1ccc(Oc2ncc(Br)cn2)c(-n2cc(Br)cn2)c1 [Compound 43]
10: Plant response rating, Barnyardgrass (barnyardgrass [3]; [19]) | Plant response rating, Corn (corn [8]; [19]) | Plant response rating, Foxtail, Giant (giant foxtail [9]; [18]) | Plant response rating, Crabgrass, Large (large (Lg) crabgrass [10]; [18]) | Barnyardgrass plant response rating (barnyardgrass [13]; [20]) | Plant response rating, Crabgrass, Large (large (Lg) crabgrass [15]; [18])
30: Plant response rating, Morningglory (morningglory [1]; [18]) | Plant response rating, Velvetleaf (velvetleaf [11]; [18]) | Plant response rating, Pigweed (pigweed [17]; [18])
20: Foxtail, Giant plant response rating (giant foxtail [9]; [20]) | Plant response rating, Crabgrass, Large (large (Lg) crabgrass [10]; [19]) | Pigweed plant response rating (pigweed [16]; [20])
60: Plant response rating, Velvetleaf (velvetleaf [12]; [18])
75: Plant response rating, Ducksalad (Heteranthera limosa)
100: Plant response rating, Velvetleaf (velvetleaf [12]; [19])
40: Plant response rating, Foxtail, Giant (giant foxtail [6]; [19]) | Plant response rating, Pigweed (pigweed [17]; [19])
50: Plant response rating, Morningglory (morningglory [1]; [19]) | Velvetleaf plant response rating (velvetleaf [11]; [20]) | Crabgrass, Large plant response rating (large (Lg) crabgrass [15]; [20])
0: Plant response rating, Sedge, Umbrella (sedge, umbrella) | Plant response rating, Wheat (wheat [2]; [18]) | Plant response rating, Wheat (wheat [2]; [19]) | Plant response rating, Barnyardgrass (barnyardgrass [3]; [18]) | Plant response rating, Barnyardgrass (barnyardgrass [4]) | Plant response rating, Morningglory (morningglory [5]; [18]) | Morningglory plant response rating (morningglory [5]; [20]) | Plant response rating, Foxtail, Giant (giant foxtail [6]; [18]) | Plant response rating, Wheat (wheat [7]; [18]) | Wheat plant response rating (wheat [7]; [20]) | Plant response rating, Corn (corn [8]; [18]) | Plant response rating, Barnyardgrass (barnyardgrass [13]; [18]) | Plant response rating, Corn (corn [14]; [18]) | Corn plant response rating (corn [14]; [20]) | Plant response rating, Rice (rice) | Plant response rating, Pigweed (pigweed [16]; [18])

NN=Cc1cccc(Oc2ncc(Cl)cn2)c1-n1cc(Cl)cn1 [Compound 295]
70: Plant response rating, Pigweed (pigweed [17]; [22])
40: Plant response rating, Morningglory (morningglory [1]; [21]) | Plant response rating, Morningglory (morningglory [1]; [22]) | Plant response rating, Pigweed (pigweed [17]; [21])
60: Pigweed plant response rating (pigweed [16]; [23])
0: Plant response rating, Sedge, Umbrella (sedge, umbrella) | Plant response rating, Wheat (wheat [2]; [21]) | Plant response rating, Wheat (wheat [2]; [22]) | Plant response rating, Barnyardgrass (barnyardgrass [3]; [21]) | Plant response rating, Barnyardgrass (barnyardgrass [3]; [22]) | Plant response rating, Barnyardgrass (barnyardgrass [4]) | Morningglory plant response rating (0 to 100 scale) (morningglory [5]; 125 g ai/ha) | Morningglory plant response rating (morningglory [5]; [23]) | Plant response rating, Foxtail, Giant (giant foxtail [6]; [21]) | Plant response rating, Foxtail, Giant (giant foxtail [6]; [22]) | Wheat plant response rating (0 to 100 scale) (wheat [7]; 125 g ai/ha) | Wheat plant response rating (wheat [7]; [23]) | Plant response rating, Ducksalad (Heteranthera limosa) | Plant response rating, Corn (corn [8]; [21]) | Plant response rating, Corn (corn [8]; [22]) | Foxtail, Giant plant response rating (0 to 100 scale) (giant foxtail [9]; 125 g ai/ha) | Foxtail, Giant plant response rating (giant foxtail [9]; [23]) | Plant response rating, Crabgrass, Large (large (Lg) crabgrass [10]; [21]) | Plant response rating, Crabgrass, Large (large (Lg) crabgrass [10]; [22]) | Velvetleaf plant response rating (0 to 100 scale) (velvetleaf [11]; 125 g ai/ha) | Velvetleaf plant response rating (velvetleaf [11]; [23]) | Barnyardgrass plant response rating (0 to 100 scale, 0 is no effect, 100 is complete control) (barnyardgrass [13]; 125 g ai/ha) | Barnyardgrass plant response rating (barnyardgrass [13]; [23]) | Corn plant response rating (0 to 100 scale) (corn [14]; 125 g ai/ha) | Corn plant response rating (corn [14]; [23]) | Plant response rating, Rice (rice) | Crabgrass, Large plant response rating (0 to 100 scale) (large (Lg) crabgrass [15]; 125 g ai/ha) | Crabgrass, Large plant response rating (large (Lg) crabgrass [15]; [23])
30: Plant response rating, Velvetleaf (velvetleaf [12]; [21]) | Plant response rating, Velvetleaf (velvetleaf [12]; [22])
20: Pigweed plant response rating (0 to 100 scale) (pigweed [16]; 125 g ai/ha)

COC(=O)c1cccc(Oc2ncc(Cl)cn2)c1-n1cc(Br)cn1 [Compound 211]
0: Plant response rating, Sedge, Umbrella (sedge, umbrella) | Wheat plant response rating (wheat [2]; [18]) | Plant response rating, Wheat (wheat [2]; [22]) | Plant response rating, Barnyardgrass (barnyardgrass [4]) | Wheat plant response rating (0 to 100 scale) (wheat [7]; 125 g ai/ha) | Wheat plant response rating (wheat [7]; [23]) | Plant response rating, Ducksalad (Heteranthera limosa) | Corn plant response rating (corn [8]; [18]) | Plant response rating, Corn (corn [8]; [22]) | Barnyardgrass plant response rating (0 to 100 scale, 0 is no effect, 100 is complete control) (barnyardgrass [13]; 125 g ai/ha) | Corn plant response rating (0 to 100 scale) (corn [14]; 125 g ai/ha) | Corn plant response rating (corn [14]; [23]) | Plant response rating, Rice (rice)
60: Plant response rating, Foxtail, Giant (giant foxtail [6]; [22]) | Velvetleaf plant response rating (0 to 100 scale) (velvetleaf [11]; 125 g ai/ha) | Barnyardgrass plant response rating (barnyardgrass [13]; [23])
100: Plant response rating, Morningglory (morningglory [1]; [22]) | Foxtail, Giant plant response rating (0 to 100 scale) (giant foxtail [9]; 125 g ai/ha) | Foxtail, Giant plant response rating (giant foxtail [9]; [23]) | Crabgrass, Large plant response rating (large (Lg) crabgrass [15]; [23]) | Pigweed plant response rating (pigweed [16]; [23]) | Plant response rating, Pigweed (pigweed [17]; [22])
20: Morningglory plant response rating (0 to 100 scale) (morningglory [5]; 125 g ai/ha)
50: Plant response rating, Barnyardgrass (barnyardgrass [3]; [22]) | Plant response rating, Crabgrass, Large (large (Lg) crabgrass [10]; [22]) | Velvetleaf plant response rating (velvetleaf [12]; [18])
90: Morningglory plant response rating (morningglory [1]; [18]) | Velvetleaf plant response rating (velvetleaf [11]; [23]) | Plant response rating, Velvetleaf (velvetleaf [12]; [22]) | Pigweed plant response rating (0 to 100 scale) (pigweed [16]; 125 g ai/ha) | Pigweed plant response rating (pigweed [17]; [18])
70: Morningglory plant response rating (morningglory [5]; [23])
30: Foxtail, Giant plant response rating (giant foxtail [6]; [18])
10: Barnyardgrass plant response rating (barnyardgrass [3]; [18]) | Crabgrass, Large plant response rating (large (Lg) crabgrass [10]; [18])
80: Crabgrass, Large plant response rating (0 to 100 scale) (large (Lg) crabgrass [15]; 125 g ai/ha)
